From US12186400B2, “Micromolecular compound specifically degrading tau protein, and application thereof” (Shanghai Qiangrui Biotech Co., Ltd., priority 2018, dated 2025)

Columns and labels:
tau protein [1] = target: T1, tau protein (Homo sapiens, UniProt P10636); experiment: Fluorescence photograph of total tau protein content in HEK293 tau cells; format: cell-based; settings: different concentrations
T1 construct: HEK293 tau cells (stably expressing wild type full length tau protein); expressed in transfected cells
T1 sequence (P10636 1-441 isoform P10636-8): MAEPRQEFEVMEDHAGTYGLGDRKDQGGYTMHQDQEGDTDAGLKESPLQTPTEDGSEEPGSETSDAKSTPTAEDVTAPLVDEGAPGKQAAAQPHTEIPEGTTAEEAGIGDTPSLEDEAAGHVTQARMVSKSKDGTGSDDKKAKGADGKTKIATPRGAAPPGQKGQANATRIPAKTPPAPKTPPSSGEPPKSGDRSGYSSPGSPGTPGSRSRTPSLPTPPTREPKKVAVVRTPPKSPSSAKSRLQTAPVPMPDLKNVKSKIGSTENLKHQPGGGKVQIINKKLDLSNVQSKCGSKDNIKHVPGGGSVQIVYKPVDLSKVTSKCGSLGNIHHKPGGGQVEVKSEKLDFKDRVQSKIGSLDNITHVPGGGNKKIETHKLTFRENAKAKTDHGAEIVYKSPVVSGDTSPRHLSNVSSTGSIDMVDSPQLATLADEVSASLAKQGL

tau protein [2] = target: T1, tau protein; experiment: Immunoblot of total tau protein (tau5 antibody) in HEK293 tau cells after 24 h treatment; format: cell-based; settings: HEK293 tau cells stably expressing wild type full length tau, effect at 1 μM, 10 μM and 20 μM (tested 0, 0.01, 0.1, 1, 10, 20 μM)
Procedure: HEK293 tau cells (stably expressing wild type full length tau protein) is subjected to cell culture and pharmaceutical treatment, and after the HEK293 tau cells were cultured in DMEM medium for 24 hours, the micromolecular compounds prepared in the above example with various concentrations (0 μM, 0.01 μM, 0.1 μM, 1 μM, 10 μM, 20 μM) were added, the cells were further cultured for 24 hours. The cells were lysed with RIPA liquid and the cell extraction solution was collected, the proteins in the cell extraction solution were separated with 10% polyacrylamide gel electrophoresis (PAGE), and subsequently immunoblotted with anti-total tau protein antibody (tau5), and the tau protein content was quantitatively analyzed. The detailed operation procedures for preparation of samples, measurement of protein content in the samples, and the immunoblotting process were performed with reference to the following content.
(1) The growth condition and density of cells in the cell culture plates were observed under a microscope;
(2) PBS and cell culture plate were precooled on ice, a mixed liquor consisting of 1× buffer solution+PMSF (1:100)+protease inhibitor cocktail (1:1000) was prepared; 80 μl of the mixed liquor was added into each pore of the 6-well plate, and 150 μl of the mixed liquor was added into a culture dish with a diameter of 6 cm; […]

In the case of `CC(=O)N1CCCN(c2nc(NCCc3cccs3)nc(N(C)CC(=O)NCCOCCOCCOCC(=O)N[C@H](C(=O)N3C[C@H](O)C[C@H]3C(=O)NCc3ccc(-c4scnc4C)cc3)C(C)(C)C)n2)CC1` [Compound 4], the “total tau protein content in the HEK293 tau cells (fluorescence photograph, FIG. 4)” value (tau protein [1]) is reported as “reducing total tau protein content in the HEK293 tau cells” and the “content of tau protein in cells (immunoblot, quantitative analysis, FIG. 2 and FIG. 3)” value (tau protein [2]) is reported as “dose-dependently reduce the content of tau protein in cells”.
